pIC50: −log10 of the molar value.
Experiments:
Candida albicans [1] = experiment: Antimicrobial activity against Candida albicans ATCC 44859 after 24 hrs by spectrophotometry; assay type: functional; settings: ATCC 44859, 24 h
[2] = system: Staphylococcus epidermidis; experiment: Antimicrobial activity against clinical isolate Staphylococcus epidermidis H 696608 after 48 hrs; assay type: functional; settings: H 696608, 48 h
Klebsiella pneumoniae [3] = experiment: Antimicrobial activity against clinical isolate Klebsiella pneumoniae D 1175008 after 48 hrs; assay type: functional; settings: D 1175008, 48 h
[4] = Cytotoxicity against CHOK1 cells after 24 hrs by MTT assay; assay type: cell-based; settings: Cricetulus griseus, CHO-K1, 24 h
Pichia kudriavzevii [5] = experiment: Antimicrobial activity against Candida krusei E28 after 24 hrs by spectrophotometry; assay type: functional; settings: E28, 24 h
Nakaseomyces glabratus [6] = experiment: Antimicrobial activity against Candida glabrata 20/I after 24 hrs by spectrophotometry; assay type: functional
Pseudomonas aeruginosa [7] = experiment: Antimicrobial activity against clinical isolate Pseudomonas aeruginosa CCM 1961 after 120 hrs; assay type: functional; settings: CCM 1961, 120 h
Escherichia coli [8] = experiment: Antimicrobial activity against clinical isolate Escherichia coli CCM 4517 after 48 hrs; assay type: functional; settings: CCM 4517, 48 h
[9] = system: Staphylococcus epidermidis; experiment: Antimicrobial activity against clinical isolate Staphylococcus epidermidis H 696608 after 24 hrs; assay type: functional; settings: H 696608, 24 h
Klebsiella pneumoniae [10] = experiment: Antimicrobial activity against clinical isolate ESBL-Klebsiella pneumoniae J 1436808 after 24 hrs; assay type: functional; settings: J 1436808, 24 h
Klebsiella pneumoniae [11] = experiment: Antimicrobial activity against clinical isolate Klebsiella pneumoniae D 1175008 after 24 hrs; assay type: functional; settings: D 1175008, 24 h
Staphylococcus aureus [12] = experiment: Antimicrobial activity against clinical isolate Staphylococcus aureus CCM 451608 after 48 hrs; assay type: functional; settings: CCM 451608, 48 h
Enterococcus sp. [13] = experiment: Antimicrobial activity against clinical isolate Enterococcus sp. J 1436508 after 48 hrs; assay type: functional; settings: J 1436508, 48 h
Trichosporon asahii [14] = experiment: Antimicrobial activity against Trichosporon asahii 1188 after 48 hrs by spectrophotometry; assay type: functional; settings: Trichosporon asahii, 1188, 48 h
Staphylococcus aureus [15] = experiment: Antimicrobial activity against clinical isolate methicillin-resistant Staphylococcus aureus H 599608 after 24 hrs; assay type: functional; settings: H 599608, 24 h
Trichosporon asahii [16] = experiment: Antimicrobial activity against Trichosporon asahii 1188 after 24 hrs by spectrophotometry; assay type: functional; settings: Trichosporon asahii, 1188, 24 h
Candida albicans [17] = experiment: Antimicrobial activity against Candida albicans ATCC 44859 after 48 hrs by spectrophotometry; assay type: functional; settings: ATCC 44859, 48 h
Pichia kudriavzevii [18] = experiment: Antimicrobial activity against Candida krusei E28 after 48 hrs by spectrophotometry; assay type: functional; settings: E28, 48 h
Staphylococcus aureus [19] = experiment: Antimicrobial activity against clinical isolate Staphylococcus aureus CCM 451608 after 24 hrs; assay type: functional; settings: CCM 451608, 24 h
Pseudomonas aeruginosa [20] = experiment: Antimicrobial activity against clinical isolate Pseudomonas aeruginosa CCM 1961 after 72 hrs; assay type: functional; settings: CCM 1961, 72 h
Lichtheimia corymbifera [21] = experiment: Antimicrobial activity against Absidia corymbifera 272 after 24 hrs by spectrophotometry; assay type: functional; settings: Lichtheimia corymbifera, 272, 24 h
Escherichia coli [22] = experiment: Antimicrobial activity against clinical isolate Escherichia coli CCM 4517 after 24 hrs; assay type: functional; settings: CCM 4517, 24 h
Candida tropicalis [23] = experiment: Antimicrobial activity against Candida tropicalis 156 after 24 hrs by spectrophotometry; assay type: functional; settings: Candida tropicalis, 156, 24 h
[24] = system: Trichophyton mentagrophytes; experiment: Antimicrobial activity against Trichophyton mentagrophytes 445 after 120 hrs by spectrophotometry; assay type: functional; settings: Trichophyton mentagrophytes, 445, 120 h
Aspergillus fumigatus [25] = experiment: Antimicrobial activity against Aspergillus fumigatus 231 after 48 hrs by spectrophotometry; assay type: functional; settings: Aspergillus fumigatus, 231, 48 h
Enterococcus sp. [26] = experiment: Antimicrobial activity against clinical isolate Enterococcus sp. J 1436508 after 24 hrs; assay type: functional; settings: J 1436508, 24 h
[27] = system: Trichophyton mentagrophytes; experiment: Antimicrobial activity against Trichophyton mentagrophytes 445 after 72 hrs by spectrophotometry; assay type: functional; settings: Trichophyton mentagrophytes, 445, 72 h
Staphylococcus aureus [28] = experiment: Antimicrobial activity against clinical isolate methicillin-resistant Staphylococcus aureus H 599608 after 48 hrs; assay type: functional; settings: H 599608, 48 h
Nakaseomyces glabratus [29] = experiment: Antimicrobial activity against Candida glabrata 20/I after 48 hrs by spectrophotometry; assay type: functional
Klebsiella pneumoniae [30] = experiment: Antimicrobial activity against clinical isolate ESBL-Klebsiella pneumoniae J 1436808 after 48 hrs; assay type: functional; settings: J 1436808, 48 h
Aspergillus fumigatus [31] = experiment: Antimicrobial activity against Aspergillus fumigatus 231 after 24 hrs by spectrophotometry; assay type: functional; settings: Aspergillus fumigatus, 231, 24 h
Candida tropicalis [32] = experiment: Antimicrobial activity against Candida tropicalis 156 after 48 hrs by spectrophotometry; assay type: functional; settings: Candida tropicalis, 156, 48 h
Lichtheimia corymbifera [33] = experiment: Antimicrobial activity against Absidia corymbifera 272 after 48 hrs by spectrophotometry; assay type: functional; settings: Lichtheimia corymbifera, 272, 48 h

Compound: CCCCCCCCCCCC[n+]1ccc2ccccc2c1 [LAURYL ISOQUINOLINIUM BROMIDE]
- MIC (Candida albicans [1]): 0.5 µM
- MBC [2]: 1 µM
- MIC [2]: 0.5 µM
- MBC (Klebsiella pneumoniae [3]): 63 µM
- MIC (Klebsiella pneumoniae [3]): 16 µM
- pIC50 [4]: 4.82
- MIC (Pichia kudriavzevii [5]): 0.5 µM
- MIC (Nakaseomyces glabratus [6]): 0.5 µM
- MBC (Pseudomonas aeruginosa [7]): 250 µM
- MIC (Pseudomonas aeruginosa [7]): 250 µM
- MBC (Escherichia coli [8]): 31 µM
- MIC (Escherichia coli [8]): 7.8 µM
- MIC [9]: 0.5 µM
- MIC (Klebsiella pneumoniae [10]): 63 µM
- MIC (Klebsiella pneumoniae [11]): 16 µM
- MBC (Staphylococcus aureus [12]): 1 µM
- MIC (Staphylococcus aureus [12]): 0.5 µM
- MBC (Enterococcus sp. [13]): 63 µM
- MIC (Enterococcus sp. [13]): 7.8 µM
- MFC (Trichosporon asahii [14]): 63 µM
- MIC (Trichosporon asahii [14]): 63 µM
- MIC (Staphylococcus aureus [15]): 0.5 µM
- MIC (Trichosporon asahii [16]): 63 µM
- MFC (Candida albicans [17]): 1 µM
- MIC (Candida albicans [17]): 0.5 µM
- MFC (Pichia kudriavzevii [18]): 1 µM
- MIC (Pichia kudriavzevii [18]): 0.5 µM
- MIC (Staphylococcus aureus [19]): 0.5 µM
- MIC (Pseudomonas aeruginosa [20]): 250 µM
- MIC (Lichtheimia corymbifera [21]): 250 µM
- MIC (Escherichia coli [22]): 7.8 µM
- MIC (Candida tropicalis [23]): 0.5 µM
- MFC [24]: 16 µM
- MIC [24]: 7.8 µM
- MFC (Aspergillus fumigatus [25]): 125 µM
- MIC (Aspergillus fumigatus [25]): 125 µM
- MIC (Enterococcus sp. [26]): 7.8 µM
- MIC [27]: 7.8 µM
- MBC (Staphylococcus aureus [28]): 1 µM
- MIC (Staphylococcus aureus [28]): 0.5 µM
- MFC (Nakaseomyces glabratus [29]): 1 µM
- MIC (Nakaseomyces glabratus [29]): 0.5 µM
- MBC (Klebsiella pneumoniae [30]): 125 µM
- MIC (Klebsiella pneumoniae [30]): 63 µM
- MIC (Aspergillus fumigatus [31]): 125 µM
- MFC (Candida tropicalis [32]): 1 µM
- MIC (Candida tropicalis [32]): 0.5 µM
- MFC (Lichtheimia corymbifera [33]): 250 µM
- MIC (Lichtheimia corymbifera [33]): 250 µM
